Experimental findings from patent publication US20260199273A1, “Compounds for the Treatment of Neuromuscular Disorders” (NMD PHARMA A/S, priority 2022, published 2026) are described below.

Test [1] relates to isolated rat soleus nerve-muscle preparations. The experiment in a line: Measurement of force in an in vitro model: recovery of nerve-stimulated contractile force after tubocurarine. The following applies: 40 min, after 40 mins of compound exposure, tubocurarine (115 nM) for 90 minutes, read-out: Point increase (%): percentage increase of initial force that was restored; for activation at 10 µM: 10 μM of test compound; for activation at 50 µM: 50 μM of test compound. As to the method:
In one aspect, the invention relates to a method for recovery of force in muscles with neuromuscular dysfunction, said method comprising administering a compound or a composition as defined herein to a subject in need thereof. The term “recovery of force in muscles with neuromuscular dysfunction” as used herein refers to the ability of a compound to recover contractile force in nerve-stimulated healthy rat muscle after exposure to submaximal concentration (115 nM) of tubocurarine for 90 minutes.
Recovery of force is quantified as the percentage of the force prior to tubocurarine that is recovered after addition of the compound. In one embodiment, said recovery of force is >5%, such as >10%, such as >15%, such as >20%, such as >25%, such as >30%, such as >35%.
The current disclosure relates to compounds that inhibit CIC-1 ion channels and increase muscle excitability and thereby improve muscle function in clinical conditions where muscle activation is failing. Such conditions result in loss of contractile function of skeletal muscle, weakness and excessive fatigue. In this series of experiments the compounds were tested for their ability to restore contractile function of isolated rat muscle when the neuromuscular transmission had been compromised akin to neuromuscular disorders.
Experimentally, soleus muscles from 4-5 week old rats were isolated with the motor nerve remaining attached. The nerve-muscle preparations were mounted in experimental setups that enabled electrical stimulation of the motor nerve. Stimulation of the motor nerve led to activation of the muscle fibres and ensuing force production that was recorded. The nerve-muscle preparations were also in these experiments incubated in the standard Krebs Ringer (see example 15) and the solution was heated to 30° C. and continuously equilibrated with a mixture of 95% O2 and 5% CO2, pH ~7.4.
After mounting the nerve-muscle preparation in the experimental setup, the contractile function of the muscle was initially assessed under the control conditions. Sub-maximal concentration of tubocurarine (115 nM), an acetylcholine receptor antagonist, was then added to the experimental bath to impose partial inhibition of the ability of the motor nerve to activate the muscle fibres. The experimental condition mimics the failing neuromuscular transmission in a range of neuromuscular disorders. After addition of tubocurarine the contractile force declined over the next 90 minutes to 10-50% of the control force. The test compound was then added to obtain the required compound concentration in the bath and the contractile force recovered was measured. To quantify the ability of the compound to restore force the percentage of the initial force that was restored was determined after 40 mins of compound exposure and the point increase is reported in Tables 3 to 7.

Test [2] deals with T1, CIC-1 ion channel (Rattus norvegicus, UniProt P35524).
T1 construct: from tissue; host or cells: whole soleus muscle of 12-14 week old Wistar rats
T1 sequence (P35524 1-994): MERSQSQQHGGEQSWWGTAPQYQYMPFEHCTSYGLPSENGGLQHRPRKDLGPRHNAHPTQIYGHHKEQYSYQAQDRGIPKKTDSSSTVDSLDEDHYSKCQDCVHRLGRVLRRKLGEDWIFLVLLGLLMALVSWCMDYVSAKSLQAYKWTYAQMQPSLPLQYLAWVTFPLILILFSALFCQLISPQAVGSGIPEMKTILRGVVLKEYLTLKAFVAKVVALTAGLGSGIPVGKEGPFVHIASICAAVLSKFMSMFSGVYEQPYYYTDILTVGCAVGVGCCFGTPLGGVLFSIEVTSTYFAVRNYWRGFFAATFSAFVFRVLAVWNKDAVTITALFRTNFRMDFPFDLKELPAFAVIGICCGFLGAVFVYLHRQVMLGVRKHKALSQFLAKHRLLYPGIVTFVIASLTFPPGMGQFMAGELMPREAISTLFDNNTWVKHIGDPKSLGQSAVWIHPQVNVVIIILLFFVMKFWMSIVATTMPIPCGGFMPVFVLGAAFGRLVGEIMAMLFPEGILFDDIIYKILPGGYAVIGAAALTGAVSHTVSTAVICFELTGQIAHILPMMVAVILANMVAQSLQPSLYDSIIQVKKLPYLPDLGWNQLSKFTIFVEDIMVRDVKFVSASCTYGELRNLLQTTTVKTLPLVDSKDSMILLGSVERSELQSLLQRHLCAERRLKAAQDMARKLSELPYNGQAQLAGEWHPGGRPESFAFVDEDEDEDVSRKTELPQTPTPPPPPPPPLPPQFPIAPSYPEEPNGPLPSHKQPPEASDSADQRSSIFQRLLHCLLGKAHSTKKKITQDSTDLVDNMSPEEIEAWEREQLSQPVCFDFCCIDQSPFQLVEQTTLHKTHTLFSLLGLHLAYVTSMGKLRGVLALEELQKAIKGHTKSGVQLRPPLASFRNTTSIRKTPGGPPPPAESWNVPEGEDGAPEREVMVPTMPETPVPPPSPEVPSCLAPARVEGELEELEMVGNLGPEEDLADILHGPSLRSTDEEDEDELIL
The test can be described thus: Electrophysiological measurement of compound inhibition of CIC-1 in rat muscle (Gm in soleus fibres, three micro-electrodes). The following applies: Gm in individual fibres of whole rat soleus muscles, approx. 30° C., four increasing compound concentrations; read-out: Potency Range (EC50, inhibition of CIC-1 ion channel). It is filed as cell-based. As to the method:
Apparent CIC-1 affinity was reported by the concentration of compound at which 50% of the compound's full inhibition of CIC-1 was observed (EC50) (see also WO2019/115777).
Experimentally, Gm was measured in individual fibres of whole rat soleus muscles using a three micro-electrodes technique described in this example and in full detail elsewhere (Riisager et al., Determination of cable parameters in skeletal muscle fibres during repetitive firing of action potentials. Journal of Physiology, 2014, 592, 4417-4429). Briefly, intact rat soleus muscles were dissected out from 12-14 week old Wistar rats and placed in an experimental chamber that was perfused with a standard Krebs Ringer solution containing 122 mM NaCl, 25 mM NaHCO3, 2.8 mM KCl, 1.2 mM KH2PO4, 1.2 mM MgSO4, 1.3 mM CaCl2, 5.0 mM D-glucose. During experiments, the solution was kept at approx. 30° C. and continuously equilibrated with a mixture of 95% O2 and 5% CO2, pH ~7.4. The experimental chamber was placed in Nikon upright microscope that was used to visualize individual muscle fibres and the three electrodes (glass pipettes filled with 2 M potassium citrate). For Gm measurements, the electrodes were inserted into the same fibre with known inter-electrode distances of 0.35-0.5 mm (V1-V2, X1) and 1.1-1.5 mm (V1-V3, X3). The membrane potential of the impaled muscle fibre was recorded by all electrodes. Two of the electrodes were furthermore used to inject 50 ms current pulses of −30 nA. […] The steady state voltage deflection at each distance was divided by the magnitude of current injected (−30 nA) and the resulting transfer resistances were plotted against inter-electrode distance and the data was fitted to a mono-exponential function from which Gm could be calculated using linear cable theory.
To establish a dose response relationship, Gm was first determined in 10 muscle fibres in the absence of compound and then at four increasing compound concentrations with Gm determinations in 5-10 fibres at each concentration. The average Gm values at each concentration were plotted against compound concentration and the data was fitted to sigmoidal function to obtain an EC5o value.

As usually defined, the EC50 is the concentration needed to bring the measured effect to its halfway point. Consider `COc1c(Cl)cc2c(c1C(=O)O)CCCCC2` [Compound A-22, 3-Chloro-2-methoxy-6,7,8,9-tetrahydro-5H-benzo[7]annulene-1-carboxylic acid], for which the activation at 10 µM in test [1] is 33%. In addition, the EC50 in test [2] lay in the range of 200 to 2000 nM.
Turning to `O=C(O)c1c(Cl)c(F)cc2c1OCCC2` [Compound A-37, 7-Chloro-6-fluoro-3,4-dihydro-2H-1-benzopyran-8-carboxylic acid], the activation at 50 µM in test [1] worked out at 48%. In addition, the EC50 in test [2] fell in the range of 2000 to 10000 nM.
Taken in the same sequence, the figures for `Cc1cc2c(c(C(=O)O)c1Cl)CCCC2` [Compound A-28, 2-chloro-3-methyl-5,6,7,8-tetrahydronaphthalene-1-carboxylic acid] were 39% and 2000 to 10000 nM.
Taken in the same sequence, the figures for `Cc1c(Cl)cc2c(c1C(=O)O)C1CCC2C1` (centres unmarked) [Compound A-21, 5-chloro-4-methyltricyclo[6.2.1.0^2,7]undeca-2(7),3,5-triene-3-carboxylic acid] were 42% and 10000 to 20000 nM.
Regarding `Cc1c(F)cc2c(c1C(=O)O)CCCC2` [Compound A-52, 3-Fluoro-2-methyl-5,6,7,8-tetrahydronaphthalene-1-carboxylic acid], in test [1], the activation at 10 µM is 18%. Besides, the concentration giving a half-maximal response (EC50) in test [2] fell in the range of 2000 to 10000 nM.
Taken in the same sequence, the figures for `O=C(O)c1c(F)c(Cl)cc2c1OCCC2` [Compound A-36, 6-Chloro-7-fluoro-3,4-dihydro-2H-1-benzopyran-8-carboxylic acid] were 43% and 2000 to 10000 nM.
The corresponding values for `O=C(O)c1c(Cl)c(F)cc2c1N(Cc1ccccc1)CCC2` [Compound A-74, 1-Benzyl-7-chloro-6-fluoro-1,2,3,4-tetrahydro-8-quinolinecarboxylic acid] are 11% and 200 to 2000 nM.
The corresponding values for `Cc1cc2c(c(C(=O)O)c1F)SCCC2` [Compound A-48, 7-fluoro-6-methyl-3,4-dihydro-2H-1-benzothiopyran-8-carboxylic acid] are 25% and 2000 to 10000 nM.
Consider `Cc1c(Cl)cc2c(c1C(=O)O)CCC2` [Compound A-1, 6-Chloro-5-methyl-2,3-dihydro-1H-indene-4-carboxylic acid], for which the activation at 50 µM in test [1] was found to be 23%. In test [2], the concentration for a half-maximal effect (EC50) was in the range of 10000 to 20000 nM.
For `O=C(O)c1c(F)c(Cl)cc2c1N(Cc1ccc(F)cc1)CCC2` [Compound A-72, 6-Chloro-7-fluoro-1-[(p-fluorophenyl)methyl]-1,2,3,4-tetrahydro-8-quinolinecarboxylic acid], the activation at 10 µM in test [1] was determined as 20%. The 50% effective concentration (EC50) in test [2] is 200 to 2000 nM.
Taken in the same sequence, the figures for `CN1CCCc2cc(Cl)c(F)c(C(=O)O)c21` [Compound A-40, 6-Chloro-7-fluoro-1-methyl-1,2,3,4-tetrahydroquinoline-8-carboxylic acid] were 39% and 200 to 2000 nM.
Taken in the same sequence, the figures for `Cc1c(Cl)cc2c(c1C(=O)O)CCCC2` [Compound A-9, 3-Chloro-2-methyl-5,6,7,8-tetrahydronaphthalene-1-carboxylic acid] were 14% and 2000 to 10000 nM.
For `COc1c(Cl)cc2c(c1C(=O)O)CCC2` [Compound A-6, 6-Chloro-5-methoxy-2,3-dihydro-1H-indene-4-carboxylic acid], the activation at 10 µM in test [1] was determined as 42%. Moreover, the concentration giving a half-maximal response (EC50) in test [2] was 200 to 2000 nM.
Taken in the same sequence, the figures for `O=C(O)c1c(F)c(Cl)cc2c1CCCC2` [Compound A-26, 3-Chloro-2-fluoro-5,6,7,8-tetrahydronaphthalene-1-carboxylic acid] were 52% and 200 to 2000 nM.
Consider `O=C(O)c1c(Cl)c(F)cc2c1CCCC2` [Compound A-27, 2-chloro-3-fluoro-5,6,7,8-tetrahydronaphthalene-1-carboxylic acid], for which the activation at 10 µM in test [1] was found to be 38%. The concentration giving a half-maximal response (EC50) in test [2] was in the range of 2000 to 10000 nM.
For the compound `CSc1c(Cl)cc2c(c1C(=O)O)CCC2` [Compound A-23, 6-Chloro-5-(methylsulfanyl)-2,3-dihydro-1H-indene-4-carboxylic acid], in test [1], the activation at 50 µM was found to be 44%. Also, in test [2], the concentration for a half-maximal effect (EC50) was 2000 to 10000 nM.
